The subject of one experiment is Vasopressin V2. Kind of experiment: Vasopressin V2 Antagonist Activity in Conscious Hydrated Rats. The format is in vivo, rat. To be noted: AVP 0.4 μg/kg i.p. The method in brief:
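Four-hour urine output, osmolality and electrolytes (Na+, K+, Cl−) recorded in water-loaded rats (30 mL/kg deionized water orally) given AVP i.p. at 0.4 μg/kg. Test compounds were given orally at 0.1–100 mg/kg 1 h before AVP; 2–4 rats per compound.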

Experiment [1] addresses T1, Rat Kidney Medullary V2 Receptors (Rattus norvegicus, UniProt Q00788).
T1 construct: Medullary tissues from rat kidneys are dissected out; from tissue; host or cells: rat kidney medulla membranes
Kind of experiment: Binding Assay to Rat Kidney Medullary V2 Receptors. To be noted: for IC50: rat kidney medulla membranes, read-out: V2 IC50. The method in brief: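 Membranes were prepared from rat kidney medulla and stored in 50.0 mM Tris-HCl pH 7.4 with 0.2% BSA and 0.1 mM PMSF. Radioligand competition ran 120 min at bench temperature, with 1.0 μM unlabeled ligand defining nonspecific binding. Compounds were added in 50% DMSO; filtration, tritium scintillation counting, IC50 from competition analysis.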

The target in another experiment is T2, Rat Hepatic V1 Receptors (Rattus norvegicus, UniProt P30560).
T2 construct: Rat liver plasma membranes expressing the vasopressin V1 receptor subtypes; from tissue; host or cells: rat liver plasma membranes
T2 sequence (P30560 whole entry): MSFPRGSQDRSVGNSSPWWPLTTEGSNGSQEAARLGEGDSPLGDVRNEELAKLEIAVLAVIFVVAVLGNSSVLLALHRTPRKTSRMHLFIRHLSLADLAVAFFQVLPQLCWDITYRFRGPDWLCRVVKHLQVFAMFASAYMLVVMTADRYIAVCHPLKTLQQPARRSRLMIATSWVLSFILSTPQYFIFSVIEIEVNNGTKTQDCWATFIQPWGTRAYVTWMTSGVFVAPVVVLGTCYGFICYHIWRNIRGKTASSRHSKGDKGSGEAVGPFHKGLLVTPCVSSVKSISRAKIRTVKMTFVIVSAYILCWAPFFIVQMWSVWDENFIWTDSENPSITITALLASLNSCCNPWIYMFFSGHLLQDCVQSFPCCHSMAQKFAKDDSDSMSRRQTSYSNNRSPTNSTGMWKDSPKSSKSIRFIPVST
Kind of experiment: Binding Assay to Rat Hepatic V1 Receptors. Conditions: for IC50: rat liver membranes, read-out: V1 IC50.

For another experiment, the system named is Vasopressin V1. Kind of experiment: Vasopressin V1 Antagonist Activity in Conscious Rats (vasopressin vasopressor response). The format is in vivo, rat. Further details: Average Change: unit not given here. Conditions: for % Inhibition / Average Change: SHR. The method in brief:
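Conscious rats are restrained supine, and under local 2% procaine a PE 10/20 cannula is passed through the ventral caudal tail artery into the lower abdominal aorta. The caudal vein is cannulated for intravenous dosing. Blood pressure is recorded with a Statham P23Db transducer, and vasopressin injections are repeated after compound dosing. Percent antagonism is calculated against the pre-drug vasopressor response taken as 100%.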

[2] abbreviates: 10 mg/kg i.v., VAS 0.01 i.u./kg, 30 min.
[3] abbreviates: 10 mg/kg i.v., VAS 0.02 i.u./kg, 30 min.
Setting [4] is: 20 mg/kg i.v., VAS 0.01 i.u./kg, 60 min.
The mark [5] stands for this setting: 20 mg/kg i.v., VAS 0.01 i.u./kg, 90 min.
Setting [6] is: 20 mg/kg i.v., VAS 0.01 i.u./kg, 120 min.
Where [7] appears, read: 20 mg/kg i.v., VAS 0.01 i.u./kg, 180 min.
Where [8] appears, read: 20 mg/kg i.v., VAS 0.01 i.u./kg, 240 min.
[9] abbreviates: 20 mg/kg i.v., VAS 0.01 i.u./kg, 300 min.
[10] abbreviates: 20 mg/kg i.v., VAS 0.02 i.u./kg, 60 min.
Setting [11] is: 20 mg/kg i.v., VAS 0.02 i.u./kg, 90 min.
Setting [12] is: 20 mg/kg i.v., VAS 0.02 i.u./kg, 120 min.
Setting [13] is: 20 mg/kg i.v., VAS 0.02 i.u./kg, 180 min.
Setting [14] is: 20 mg/kg i.v., VAS 0.02 i.u./kg, 240 min.
Where [15] appears, read: 20 mg/kg i.v., VAS 0.02 i.u./kg, 300 min.
Setting [16] is: 10 mg/kg i.v., VAS 0.01 i.u./kg, 60 min.
[17] abbreviates: 10 mg/kg i.v., VAS 0.01 i.u./kg, 90 min.
The mark [18] stands for this setting: 10 mg/kg i.v., VAS 0.01 i.u./kg, 120 min.
[19] abbreviates: 10 mg/kg i.v., VAS 0.01 i.u./kg, 180 min.
Where [20] appears, read: 10 mg/kg i.v., VAS 0.01 i.u./kg, 240 min.
The mark [21] stands for this setting: 10 mg/kg i.v., VAS 0.01 i.u./kg, 300 min.
The mark [22] stands for this setting: 10 mg/kg i.v., VAS 0.02 i.u./kg, 60 min.
Setting [23] is: 10 mg/kg i.v., VAS 0.02 i.u./kg, 90 min.
[24] abbreviates: 10 mg/kg i.v., VAS 0.02 i.u./kg, 120 min.
The mark [25] stands for this setting: 10 mg/kg i.v., VAS 0.02 i.u./kg, 180 min.
[26] abbreviates: 10 mg/kg i.v., VAS 0.02 i.u./kg, 240 min.
Setting [27] is: 10 mg/kg i.v., VAS 0.02 i.u./kg, 300 min.

For orientation: inhibition means the share of the control response that was lost under treatment. Usually % Inhibition stands for the relative decrease from the control value, in per cent. Broadly, the IC50 is the concentration at which inhibition is half-maximal.

T1 sequence (Q00788 whole entry): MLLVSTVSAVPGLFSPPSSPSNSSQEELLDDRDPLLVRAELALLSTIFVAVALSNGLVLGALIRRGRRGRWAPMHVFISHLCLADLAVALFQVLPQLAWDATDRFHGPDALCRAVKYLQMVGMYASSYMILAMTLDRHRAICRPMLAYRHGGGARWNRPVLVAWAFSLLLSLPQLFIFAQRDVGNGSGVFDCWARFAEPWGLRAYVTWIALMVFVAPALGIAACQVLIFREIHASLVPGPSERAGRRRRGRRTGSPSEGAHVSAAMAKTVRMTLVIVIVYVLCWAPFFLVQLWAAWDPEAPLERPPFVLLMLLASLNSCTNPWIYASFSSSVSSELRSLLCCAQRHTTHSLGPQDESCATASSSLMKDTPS

On to `O=C(Nc1ccc(C(=O)N2Cc3cccn3Cc3ccccc32)cc1)c1sc2ccccc2c1Cl` [Example 82, N-[4-(5H-Pyrrolo[2,1-c][1,4]benzodiazepin-10(11H)-ylcarbonyl)phenyl]-3-chlorobenzo[b]thiophene-2-carboxamide], for which the Osmolality in the experiment with Vasopressin V2 (20 mg/kg orally) turned out to be 1300 mOsm/kg. Moreover, the “Urine Volume” value in the experiment with Vasopressin V2 (20 mg/kg orally) was determined as 4.3 ml/4 hrs. Moreover, the inhibition at 10 µM in experiment [1] (10 μM, rat) came out at 71%; on Rat Hepatic V1 Receptors (2 h, 10 μM, rat), 23%. The “% Inhibition” value in the experiment with Vasopressin V1 (setting [2]) is reported as 24%; with Vasopressin V1 (setting [3]) it was -5%; in the experiment on Vasopressin V1 (setting [4]) it was 67%; in the experiment with Vasopressin V1 (setting [5]), 51%; in the experiment on Vasopressin V1 (setting [6]) it was 65%; in the experiment with Vasopressin V1 (setting [7]) it was 61%. Moreover, the “% Inhibition” value in the experiment on Vasopressin V1 (setting [8]) is given as 39%; in the experiment with Vasopressin V1 (setting [9]) it was 33%; with Vasopressin V1 (setting [10]), 28%; in the experiment on Vasopressin V1 (setting [11]), 53%; in the experiment with Vasopressin V1 (setting [12]) it was 25%; with Vasopressin V1 (setting [13]), 16%. The “% Inhibition” value is 18% in the experiment with Vasopressin V1 (setting [14]) and -3% with Vasopressin V1 (setting [15]). The “Average Change” value is on record as 36 in the experiment on Vasopressin V1 (setting [2]); 54 in the experiment with Vasopressin V1 (setting [3]); 15.5 with Vasopressin V1 (setting [4]); 23.5 in the experiment on Vasopressin V1 (setting [5]); 16.5 in the experiment on Vasopressin V1 (setting [6]); 18.5 in the experiment on Vasopressin V1 (setting [7]). Further, the “Average Change” value in the experiment with Vasopressin V1 (setting [8]) stood at 29; in the experiment on Vasopressin V1 (setting [9]), 32; with Vasopressin V1 (setting [10]) it was 37; with Vasopressin V1 (setting [11]), 24; with Vasopressin V1 (setting [12]) it was 38.5; with Vasopressin V1 (setting [13]) it was 43.5. The “Average Change” value is recorded as 42 in the experiment with Vasopressin V1 (setting [14]) and 53 in the experiment with Vasopressin V1 (setting [15]).
In the experiment with Vasopressin V2 (30 mg/kg orally), `Cc1cc(C(=O)N2Cc3cccn3Cc3ccccc32)ccc1NC(=O)c1ccc(Cl)cc1Cl` [Example 99, N-[4-(5H-pyrrolo[2,1-c][1,4]-benzodiazepin-10(11H)-yl-carbonyl)-2-methylphenyl]-2,4-dichlorobenzamide] gave an Osmolality of 334 mOsm/kg. For the same compound, the “Urine Volume” value in the experiment on Vasopressin V2 (30 mg/kg orally) was 15.2 ml/4 hrs. Besides, the IC50 in experiment [1] amounted to 10 nM; at Rat Hepatic V1 Receptors, 27 nM. In addition, in the experiment on Vasopressin V1 (10 mg/kg i.v.), the “Max. % Inhibition” value is recorded as 76%. The “Time (of max. % inhibition)” value in the experiment on Vasopressin V1 (10 mg/kg i.v.) was 120 min. The “% Inhibition” value was found to be 74% in the experiment with Vasopressin V1 (setting [2]); 29% in the experiment with Vasopressin V1 (setting [16]); 47% in the experiment with Vasopressin V1 (setting [17]); 76% in the experiment on Vasopressin V1 (setting [18]); 68% in the experiment on Vasopressin V1 (setting [19]); 50% in the experiment on Vasopressin V1 (setting [20]). The “% Inhibition” value in the experiment with Vasopressin V1 (setting [21]) is reported as 44%; with Vasopressin V1 (setting [3]) it was 64%; with Vasopressin V1 (setting [22]), 72%; in the experiment on Vasopressin V1 (setting [23]), 26%; in the experiment on Vasopressin V1 (setting [24]), 53%; in the experiment with Vasopressin V1 (setting [25]) it was 44%. Also, the “% Inhibition” value is reported as 40% in the experiment with Vasopressin V1 (setting [26]) and 38% with Vasopressin V1 (setting [27]). The “Average Change” value in the experiment on Vasopressin V1 (setting [2]) was 9.5; with Vasopressin V1 (setting [16]) it was 25.5; in the experiment on Vasopressin V1 (setting [17]) it was 19; with Vasopressin V1 (setting [18]) it was 8.5; in the experiment on Vasopressin V1 (setting [19]) it was 11.5; in the experiment with Vasopressin V1 (setting [20]) it was 18. For the same compound, the “Average Change” value with Vasopressin V1 (setting [21]) worked out at 20; in the experiment on Vasopressin V1 (setting [3]) it was 13; in the experiment on Vasopressin V1 (setting [22]), 10; in the experiment with Vasopressin V1 (setting [23]) it was 26.5; with Vasopressin V1 (setting [24]), 17; in the experiment on Vasopressin V1 (setting [25]), 20. Further, the “Average Change” value is recorded as 21.5 with Vasopressin V1 (setting [26]) and 22.5 with Vasopressin V1 (setting [27]).
With `O=C(Nc1ccc(C(=O)N2Cc3cccn3Cc3ccccc32)cc1)C1CCCCC1` [Example 358, N-[4-(5H-Pyrrolo[2,1-c][1,4]benzodiazepin-10(11)ylcarbonyl)phenyl]-cyclohexanecarboxamide], the Osmolality in the experiment on Vasopressin V2 (30 mg/kg orally) is given as 875 mOsm/kg. In the experiment with Vasopressin V2 (30 mg/kg orally), the “Urine Volume” value turned out to be 5.5 ml/4 hrs. Also, the results for the IC50 (in experiment [1]; on Rat Hepatic V1 Receptors) were 16 nM and 11 nM, respectively. In addition, the “% Inhibition” value is listed as 67% in the experiment on Vasopressin V1 (setting [2]); 64% in the experiment on Vasopressin V1 (setting [16]); 52% with Vasopressin V1 (setting [17]); 78% in the experiment with Vasopressin V1 (setting [18]); 52% in the experiment with Vasopressin V1 (setting [19]); 67% in the experiment with Vasopressin V1 (setting [20]). Moreover, the “% Inhibition” value in the experiment with Vasopressin V1 (setting [21]) is recorded as 48%; in the experiment with Vasopressin V1 (setting [3]), 39%; with Vasopressin V1 (setting [22]), 75%; in the experiment with Vasopressin V1 (setting [23]), 72%; with Vasopressin V1 (setting [24]), 65%; in the experiment with Vasopressin V1 (setting [25]), 63%. Also, the results for the “% Inhibition” value with Vasopressin V1 (setting [26]) and with Vasopressin V1 (setting [27]) were 61% and 59%, respectively. Moreover, the “Average Change” value is given as 12 in the experiment on Vasopressin V1 (setting [2]); 13 in the experiment on Vasopressin V1 (setting [16]); 17.5 in the experiment with Vasopressin V1 (setting [17]); 8 with Vasopressin V1 (setting [18]); 17.5 in the experiment with Vasopressin V1 (setting [19]); 12 in the experiment on Vasopressin V1 (setting [20]). The “Average Change” value is 19 in the experiment with Vasopressin V1 (setting [21]); 24 in the experiment on Vasopressin V1 (setting [3]); 10 with Vasopressin V1 (setting [22]); 11 in the experiment with Vasopressin V1 (setting [23]); 14 in the experiment with Vasopressin V1 (setting [24]); 14.5 with Vasopressin V1 (setting [25]). Besides, the “Average Change” value is recorded as 15.5 with Vasopressin V1 (setting [26]) and 16 in the experiment with Vasopressin V1 (setting [27]).
For `Cc1c(F)cccc1C(=O)Nc1ccc(C(=O)N2Cc3cccn3Cc3ccccc32)cc1` [Example 466, N-[4-(5H-pyrrolo[2,1-c][1,4]benzodiazepin-10(11H)-ylcarbonyl)phenyl]-3-fluoro-2-methylbenzamide], in the experiment on Vasopressin V2 (10 mg/kg orally), the Osmolality is given as 522 mOsm/kg and the “Urine Volume” value amounted to 14.1 ml/4 hrs. Besides, the half-inhibitory concentration (IC50) in experiment [1] was found to be 4 nM. The IC50 on Rat Hepatic V1 Receptors was determined as 26 nM. In the experiment on Vasopressin V1 (30 mg/kg i.v.), the “Max. % Inhibition” value was found to be 94% and the “Time (of max. % inhibition)” value worked out at 94 min.
In the case of `Cc1cccc(C(=O)Nc2ccc(C(=O)N3Cc4cccn4Cc4ccccc43)cc2)c1C` [Example 467, N-[4-(5H-pyrrolo[2,1-c][1,4]benzodiazepin-10(11H)-ylcarbonyl)phenyl]-2,3-dimethylbenzamide], in the experiment on Vasopressin V2 (10 mg/kg orally), the Osmolality is 365 mOsm/kg and the “Urine Volume” value is listed as 18 ml/4 hrs. Further, the IC50 in experiment [1] came out at 5 nM. At Rat Hepatic V1 Receptors, the IC50 was found to be 31 nM. Moreover, in the experiment on Vasopressin V1 (10 mg/kg i.v.), the “Max. % Inhibition” value was determined as 65% and the “Time (of max. % inhibition)” value came to 120 min.
In the case of `Cc1ccccc1NC(=O)c1ccc(C(=O)N2Cc3cccn3Cc3ccccc32)cc1` [Example 484, N-(2-Methylphenyl)-4-(5H-pyrrolo[2,1-c][1,4]-benzodiazepin-10(11H)-ylcarbonyl)benzamide], in the experiment with Vasopressin V2 (10 mg/kg orally), the Osmolality is listed as 785 mOsm/kg and the “Urine Volume” value is 8 ml/4 hrs. Besides, the IC50 in experiment [1] is 25 nM. Also, the IC50 on Rat Hepatic V1 Receptors came to 97 nM. Further, in the experiment with Vasopressin V1 (10 mg/kg i.v.), the “Max. % Inhibition” value is 79% and the “Time (of max. % inhibition)” value is on record as 300 min. Besides, in the experiment with Vasopressin V1 (30 mg/kg p.o.), the “Max. % Inhibition” value was 22% and the “Time (of max. % inhibition)” value stood at 180 min.

These data come from patent publication US5624923A, “Tricyclic diazepine vasopressin antagonists and oxytocin antagonists” (priority 1995, dated 1997).
